We go through 1 molecule from patent US11648205B1, “Buccal formulation of avanafil with enhanced bioavailability and prolonged duration” (King Abdulaziz University, priority 2022, dated 2023).

≈ marks a conversion by molar mass, not a printed value.

The data set can be described thus: Solubility study of AVA-solid dispersions in distilled water. It is filed as physicochemical. Conditions: thermodynamic from solid, shaking water bath 48 h. The protocol:
A solubility study for the prepared solid dispersions was conducted separately in distilled water, as described previously, with full details published (34). In screw-capped vials, 10 mL of distilled water was placed, and an excess amount of either the pure drug or the prepared solid dispersions was added. The vials were kept in a shaking water bath, for 48 h, in a thermostatically controlled shaking water bath (Model 1031; GFL Corporation, Burgwedel, Germany). Samples from the vial were obtained and were determined in triplicate using spectrophotometric assay at λmax 285 nm, and the data were expressed as the average ± the standard deviation. The AVA-solid dispersion with the highest water solubility was determined and selected for further investigations. Powder X-ray Diffraction (PXRD)

Turning to `COc1ccc(CN=c2[nH]c(N3CCC[C@H]3CO)ncc2C(=O)NCc2ncccn2)cc1Cl` [AVA, Avanafil], the concentration in solution (solubility at 48 h) came to 3 µg/mL (≈ 6.2 µM).
